Reference: a melting point compilation (Tetko et al.)

Q: For `CCOc1ccc(N)cc1S(N)(=O)=O`, which melting point is on record?
A: 154 to 156 °C

Q: With `NNc1ccncc1Cl` as the molecule, how does the melting point read?
A: 158 to 160 °C

Q: For `CNc1ncccc1C(N)=O`, which melting point is on record?
A: 181 to 183 °C

Q: Which melting point does the source give for `O=C(O)Cc1csc2nc(-c3ccccc3)cn12` here?
A: 220 to 222 °C

Q: With `CN(C)C=C1C(=O)CCCC1=O` as the molecule, how does the melting point read?
A: 111 to 113 °C

Q: For `NC1CCCC(C(=O)NC2CC2)C1` (stereo unspecified), which melting point is on record?
A: 97 to 99 °C

Q: For `CN(C)S(=O)(=O)c1ccc(N2CCCCC2)c(C(=O)O)c1`, which melting point is on record?
A: 135 to 137 °C

Q: With `CCOC=C1C(=O)N(c2ccc(Cl)cn2)C(=O)c2ccccc21` as the molecule, how does the melting point read?
A: 200 to 202 °C

Q: For `NC(=O)C1CNc2ccccc2N1` (stereo unspecified), which melting point is on record?
A: 99 to 101 °C

Q: With `O=C(O)c1cc2c(s1)CCCC2` as the molecule, how does the melting point read?
A: 179 to 181 °C

Q: With `O=C1C(Br)CCN1c1ccccc1` (stereo unspecified) as the molecule, how does the melting point read?
A: 99 to 101 °C

Q: With `c1ccc(C2=NCCN2)nc1` as the molecule, how does the melting point read?
A: 149 to 151 °C

Q: With `Cn1cn[nH]c1=O` as the molecule, how does the melting point read?
A: 134 to 136 °C

Q: For `NC(=O)c1ccc(Cl)cc1N`, which melting point is on record?
A: 179 to 181 °C

Q: Which melting point does the source give for `COc1ccc(C(=O)O)cc1C(C)C` here?
A: 164 to 166 °C

Q: Which melting point does the source give for `Cn1cnnc1SCc1ccc(C(=O)O)o1` here?
A: 179 to 181 °C

Q: With `O=[N+]([O-])c1ccc(F)c([N+](=O)[O-])c1F` as the molecule, how does the melting point read?
A: 37 to 39 °C

Q: For `Nc1cccc(N2CCOC2=O)c1`, which melting point is on record?
A: 152 to 154 °C

Q: For `Cc1ccnc(N)c1C#N`, which melting point is on record?
A: 148 to 150 °C

Q: For `COc1ccc(C=O)c([N+](=O)[O-])c1`, which melting point is on record?
A: 91 to 93 °C

Q: With `Nc1cccc(Br)c1CO` as the molecule, how does the melting point read?
A: 94 to 96 °C

Q: Which melting point does the source give for `COC(=O)C(=O)Nc1ccc(C)cc1` here?
A: 147 to 149 °C

Q: For `CC(C)n1ccc(=O)nc1S`, which melting point is on record?
A: 254 to 256 °C

Q: Which melting point does the source give for `Cc1ccc(NC(=O)CCl)cc1S(=O)(=O)N(C)C` here?
A: 74 to 76 °C

Q: For `NCC(O)c1ccc2ccccc2c1` (stereo unspecified), which melting point is on record?
A: 115 to 117 °C

Q: With `Cc1cc(C(=O)NC2CCCCC2)ccc1N` as the molecule, how does the melting point read?
A: 178 to 180 °C

Q: With `NC(CCCO)c1ccccc1` (stereo unspecified) as the molecule, how does the melting point read?
A: 72 to 74 °C

Q: With `COc1ccc2nc(C#N)ccc2c1` as the molecule, how does the melting point read?
A: 176 to 178 °C

Q: For `O=c1cc(CCl)occ1O`, which melting point is on record?
A: 166 to 168 °C

Q: Which melting point does the source give for `Nc1ncc(Br)cc1S(=O)(=O)N1CCCC1` here?
A: 169 to 171 °C

Q: With `O=C(N=C=S)c1ccc(Cl)c(Cl)c1` as the molecule, how does the melting point read?
A: 49 to 51 °C

Q: For `CN1C(=O)CNC1=O`, which melting point is on record?
A: 177 to 179 °C

Q: For `NC(=S)N1CCN(c2ccc(Cl)cc2)CC1`, which melting point is on record?
A: 176 to 178 °C

Q: Which melting point does the source give for `O=[N+]([O-])c1ccccc1S(=O)(=O)N1CCNCC1` here?
A: 147 to 149 °C

Q: With `CC1CC1C(=O)NN` (stereo unspecified) as the molecule, how does the melting point read?
A: 85 to 87 °C

Q: For `NC(CCl)=NO`, which melting point is on record?
A: 83 to 87 °C

Q: For `CC(=O)c1ccc(-n2cnnn2)cc1`, which melting point is on record?
A: 174 to 176 °C

Q: For `COc1ccccc1-n1c(C)nnc1SCC(=O)O`, which melting point is on record?
A: 169 to 171 °C

Q: For `CNC(=O)COc1ccc(C(C)O)cc1` (stereo unspecified), which melting point is on record?
A: 84 to 86 °C

Q: Which melting point does the source give for `Cc1ccc(-n2nnc(C(=O)O)c2C2CC2)cc1` here?
A: 173 to 175 °C

Q: With `Cc1c(C(=O)O)sc2cccc(F)c12` as the molecule, how does the melting point read?
A: 230 to 232 °C

Q: For `NC(Cc1cccs1)=NO`, which melting point is on record?
A: 79 to 82 °C

Q: With `CCOC(=O)C(NC(=O)C(C)C)C(=O)OCC` as the molecule, how does the melting point read?
A: 75 to 77 °C

Q: With `COc1c(C(=O)O)cc(Cl)cc1[N+](=O)[O-]` as the molecule, how does the melting point read?
A: 161 to 163 °C

Q: With `CCOC(=O)Cn1c(=O)[nH]c2cc(Br)cnc21` as the molecule, how does the melting point read?
A: 206 to 208 °C

Q: With `CC1CC(O)CC(C)N1` (stereo unspecified) as the molecule, how does the melting point read?
A: 109 to 111 °C

Q: With `Cc1c(C=O)c2ccccn2c1C#N` as the molecule, how does the melting point read?
A: 170 to 172 °C

Q: With `CC(C)(C)OC(=O)NCCCCC(=O)O` as the molecule, how does the melting point read?
A: 43 to 45 °C

Q: Which melting point does the source give for `O=C1NC(=O)c2cc(S(=O)(=O)Cl)ccc21` here?
A: 163 to 165 °C

Q: For `CCNC1CCc2[nH]c3ccc(Cl)cc3c2C1` (stereo unspecified), which melting point is on record?
A: 174 to 176 °C

Q: Which melting point does the source give for `CCOC(=O)c1c[nH]cc1C(F)(F)F` here?
A: 161 to 163 °C

Q: With `NC(=O)c1sc2ccccc2c1N` as the molecule, how does the melting point read?
A: 217 to 219 °C

Q: Which melting point does the source give for `CC(C)Nc1ncccc1C(=O)O` here?
A: 169 to 171 °C

Q: For `O=C1Nc2cc(N3CCCC3)ccc2C1=O`, which melting point is on record?
A: 293 to 295 °C

Q: For `Oc1cc(C2CC2)ncn1`, which melting point is on record?
A: 188 to 190 °C

Q: With `CS(=O)(=O)Cc1ccc(Cl)cc1N` as the molecule, how does the melting point read?
A: 140 to 142 °C

Q: Which melting point does the source give for `NC(=S)CCN1CCCCC1` here?
A: 104 to 106 °C

Q: Which melting point does the source give for `CCOC(=O)c1sc2nc(CN(C)C)nc(Cl)c2c1C` here?
A: 114 to 116 °C

Q: With `c1ccc2oc(-c3nn[nH]n3)cc2c1` as the molecule, how does the melting point read?
A: 212 to 214 °C

Q: With `OC(c1ccc[nH]1)C(F)(F)F` (stereo unspecified) as the molecule, how does the melting point read?
A: 47 to 49 °C

Q: With `O=C(NNc1ccccc1)Nc1ccccc1` as the molecule, how does the melting point read?
A: 178 to 180 °C
